# Source: patent publication US20030022821A1, “Bioactive peptides” (priority 1998, published 2003)
# Read-outs that look alike come from different tables or passages of the source. Square brackets hold non-standard residues; d marks the D form. Ends that are not written are not given here. Peptide text beside a SMILES is read from it. * marks the point of attachment. Trp(2-Pmc) = Cc1c(C)c(S(=O)(=O)c2[nH]c3ccccc3c2C[C@H](N)C(=O)O)c(C)c2c1OC(C)(C)CC2; Bip = N[C@@H](Cc1ccc(-c2ccccc2)cc1)C(=O)O; Fmoc = O=C(OCC1c2ccccc2-c2ccccc21)*; Acm = CC(=O)NC*
# Key:
# human red blood cells = test: Hemolytic assay; assay type: cell-based
# Method: The hemolytic activities of the peptides were determined using fresh human red blood cells. 8 ml blood was taken from a healthy person. 4 ml blood was transferred to a polycarbonate tube containing heparin to a final concentration of 10 U/ml, and the remaining 4 ml blood was transferred to a glass tube containing EDTA with final concentration of 15% EDTA. The erythrocytes were isolated from heparin-treated blood by centrifugation in 1500 rpm for 10 min and washed three times with phosphate-buffered saline (PBS) to remove plasma and buffy coat. The cell pellet was resuspended in PBS to make the final volume of 4 ml. The peptide was diluted to a concentration of 2 mg/ml and 0.1 mg/ml. The peptide was further diluted to the concentrations as stated in Table 15. For each tube PBS was added first, then RBCs and peptide solutions. The hematocrit in the blood treated with EDTA was determined after 30 min with Sysmex K-1000, and the resuspended RBCs were diluted into 10% hematocrit. RBCs in PBS (1%) with and without peptides (Table 15) were incubated in a shaker at […] for 1 hour and then centrifuged at 4000 rpm for 5 min. The supernatant were carefully transferred to new polycarbonate tubes and the absorbance of the supernatant was measured at 540 nm. Baseline hemolysis was hemoglobin released in the presence of PBS, and 100% hemolysis was hemoglobin released in the presence of 0.1% Triton X-100.
# [1] = tested on: Meth A cells (murine sarcoma cell line); test: Cytotoxicity on Meth A cells, MTT method
# Method: Peptide solutions (0.1 ml) were added and the plates incubated at 37° C. for 30 minutes, 4 hours or 24 hours. The cytotoxicity was measured using the MTT method (Mosmann et al., J. Immunol. (1986) 136, 2348-2357).
# Cells in the growth phase were harvested and washed in fresh medium and injected subcutaneously into the abdominal region of the mice.
# The cytotoxic effect of the peptides on different murine and human tumor cells were measured using the MTT method (Mosmann et al., J. Immunol. (1986) 136, 2348-2357). MTT is a soluble tetrazolium salt yielding a yellow solution when prepared in media or salt solutions lacking phenol red. Dissolved MTT is converted to an insoluble purple formazan by cleavage of the tetrazolium ring by dehydrogenase enzymes. This water insoluble formazan can be solubilized using isopropanol or other solvents and the dissolved material is measured spectrophotometrically. The absorbance was measured as a function of concentration of converted dye.
# Cells were maintained in […] medium containing 10% FBS, 1% L-glutamine and 0.1% penicillin and streptomycin. Cells to be used in the assay were grown to confluency, trypsinated and split to single cell suspension, counted and centrifuged at 1500 rpm for 10 min. […][…] of cell suspension was transferred to each well on a 96-well microtiter plate. The cells were stimulated by adding […] of various concentrations of peptides diluted with assay medium to each well. The final concentrations of peptide were for example: 5, 10, 20, 40, 60, 80, 100, and 200 mg/ml. […] As a negative control only medium was added to the cells, and as a positive control (100% killing) 1% triton X-100 was added. Following an incubation period of 4 h., 20 ml MTT dissolved in PBS at a concentration of 5 mg/ml was added to each well, and the plate was incubated further for 2 h. 130 ml of the supernatant were then removed and […] acid alcohol (0.04-0.1 N HCl in isopropanol) added to each well to dissolve the dark blue crystals. The plate was placed on a shaker for 1 h and read spectrophotometrically at 590 nm in a microtiterplate reader using the Softmaxâ program.
# [2] = tested on: Escherichia coli ATCC 25922; assay type: cell-based
# Outline: (§1)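 Strains are stored at −70° C, grown to mid-logarithmic phase in 2% Bacto Peptone water, then exposed to peptides in 1% Bacto Peptone water by standard microdilution with 2×10^6 CFU/ml. Each assay runs in triplicate.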
# [3] = tested on: Staphylococcus aureus ATCC 25923; assay type: cell-based
# Outline: as §1
MIC E. coli ([2]; ATCC 25922),MIC S. aureus ([3]; ATCC 25923),Molecule,MethA IC50 ([1]; 4 h),% Hemolysis 10 μg/ml (human red blood cells; red cells of human),also measured
30 µg/mL,150 µg/mL,CSCC[C@H](NC(=O)[C@H](CCCNC(=N)N)NC(=O)[C@H](Cc1c[nH]c2ccccc12)NC(=O)[C@H](C)NC(=O)[C@H](Cc1c[nH]c2ccccc12)NC(=O)[C@H](CCCNC(=N)N)NC(=O)[C@H](CCCNC(=N)N)NC(=O)[C@H](CSCNC(C)=O)NC(=O)[C@H](CCCCN)NC(=O)[C@@H](N)Cc1ccccc1)C(=O)N[C@@H](CCCCN)C(=O)N[C@@H](CCCCN)C(=O)N[C@@H](CC(C)C)C(=O)NCC(=O)N[C@@H](C)C(=O)O [LFB A7] (H-FKC(Acm)RRWAWRMKKLGA-OH),500 µg/mL,,
25 µg/mL,160 µg/mL,CSCC[C@H](NC(=O)[C@H](CCCNC(=N)N)NC(=O)[C@H](Cc1c[nH]c2ccccc12)NC(=O)[C@H](CCC(N)=O)NC(=O)[C@H](Cc1c[nH]c2ccccc12)NC(=O)[C@H](CCCNC(=N)N)NC(=O)[C@H](CCCNC(=N)N)NC(=O)[C@H](CSCNC(C)=O)NC(=O)[C@H](CCCCN)NC(=O)[C@@H](N)Cc1ccccc1)C(=O)N[C@@H](CCCCN)C(=O)N[C@@H](CCCCN)C(=O)N[C@@H](CC(C)C)C(=O)N[C@@H](C)C(=O)N[C@@H](C)C(=O)O [LFB A14] (H-FKC(Acm)RRWQWRMKKLAA-OH),500 µg/mL,,
>1000 µg/mL,1000 µg/mL,"CSCC[C@H](NC(=O)[C@H](CCC(=O)O)NC(=O)[C@H](Cc1c[nH]c2ccccc12)NC(=O)[C@H](CCC(N)=O)NC(=O)[C@H](Cc1c[nH]c2ccccc12)NC(=O)[C@H](CCCNC(=N)N)NC(=O)[C@H](CC(C)C)NC(=O)[C@H](CSCNC(C)=O)NC(=O)[C@H](CCCCN)NC(=O)[C@@H](N)CCC(=O)O)C(=O)N[C@@H](CCCNC(=N)N)C(=O)N[C@@H](CCCCN)C(=O)N[C@H](C(=O)NCC(=O)NCC(=O)O)C(C)C [LFM W8, H2N-Glu-Lys-Cys-Leu-Arg-Trp-Gln-Trp-Glu-Met-Arg-Lys-Val-Gly-Gly-COOH] (H-EKC(Acm)LRWQWEMRKVGG-OH)",,2.6%,% Hemolysis 100 μg/ml (human red blood cells; red cells of human): 4.8%
25 µg/mL,100 µg/mL,H-FKARRWQWRMKKLGA-OH [LFB A3],500 µg/mL,,
40 µg/mL,>100 µg/mL,RRWQWRMKKLG-OH [LFB 20-30],,2.16%,% Hemolysis 100 μg/ml (human red blood cells; red cells of human): 3.1%

# Second part, the molecule before the results:
Molecule,MIC E. coli ([2]; ATCC 25922),MIC S. aureus ([3]; ATCC 25923),MethA IC50 ([1]; 4 h),% Hemolysis 10 μg/ml (human red blood cells; red cells of human),also measured
"CSCC[C@H](NC(=O)[C@H](CCCNC(=N)N)NC(=O)[C@H](Cc1c[nH]c2ccccc12)NC(=O)[C@H](C)NC(=O)[C@H](Cc1c[nH]c2ccccc12)NC(=O)[C@H](CCCNC(=N)N)NC(=O)[C@H](CCCNC(=N)N)NC(=O)[C@H](C)NC(=O)[C@H](CCCCN)NC(=O)[C@H](Cc1ccc(-c2ccccc2)cc1)NC(=O)[C@H](Cc1c[nH]c2ccccc12)NC(=O)[C@H](C)NC(=O)[C@@H]1CCCN1)C(=O)N[C@@H](CCCCN)C(=O)N[C@@H](CCCCN)C(=O)N[C@@H](CC(C)C)C(=O)N[C@@H](C)C(=O)N[C@@H](C)C(=O)O [LFB1431A2, 6, 10, 17Bip4] (H-PAW[Bip]KARRWAWRMKKLAA-OH; N-terminus assumed)",,,,,EC50 (human red blood cells; red cells of human): 336 µM; EC50 ([1]; 4 h): 23.4 µM
CSCC[C@H](NC(=O)[C@H](CCCNC(=N)N)NC(=O)[C@H](Cc1c[nH]c2ccccc12)NC(=O)[C@H](C)NC(=O)[C@H](Cc1c[nH]c2ccccc12)NC(=O)[C@H](CCCNC(=N)N)NC(=O)[C@H](CCCNC(=N)N)NC(=O)OCC1c2ccccc2-c2ccccc21)C(=O)N[C@@H](CCCCN)C(=O)N[C@@H](CCCCN)C(=O)O [LFB 20-28 A4 FMOC] (Fmoc-RRWAWRMKK-OH),,,120 µg/mL,,
CSCC[C@H](NC(=O)[C@H](CCCNC(=N)N)NC(=O)[C@H](C)NC(=O)[C@H](CCC(N)=O)NC(=O)[C@H](Cc1c(S(=O)(=O)c2c(C)c(C)c3c(c2C)CCC(C)(C)O3)[nH]c2ccccc12)NC(=O)[C@H](CCCNC(=N)N)NC(=O)[C@H](CCCNC(=N)N)NC(=O)[C@H](CSCNC(C)=O)NC(=O)[C@H](CCCCN)NC(=O)[C@@H](N)Cc1ccccc1)C(=O)N[C@@H](CCCCN)C(=O)N[C@@H](CCCCN)C(=O)N[C@@H](CC(C)C)C(=O)NCC(=O)N[C@@H](C)C(=O)O [LFB A8 PMC] (H-FKC(Acm)RR[Trp(2-Pmc)]QARMKKLGA-OH),15 µg/mL,17.5 µg/mL,275 µg/mL,,
"CSCC[C@H](NC(=O)[C@H](CCC(=O)O)NC(=O)[C@H](CC(N)=O)NC(=O)[C@H](CCC(N)=O)NC(=O)[C@H](Cc1c[nH]c2ccccc12)NC(=O)[C@H](CCCNC(=N)N)NC(=O)[C@H](CC(C)C)NC(=O)[C@H](CSCNC(C)=O)NC(=O)[C@H](CCCCN)NC(=O)[C@@H](N)CCC(=O)O)C(=O)N[C@@H](CCCNC(=N)N)C(=O)N[C@@H](CCCCN)C(=O)N[C@H](C(=O)NCC(=O)NCC(=O)O)C(C)C [LFM, EKCLRWQNEMRKVGG] (H-EKC(Acm)LRWQNEMRKVGG-OH; N-terminus assumed)",>1000 µg/mL,>1000 µg/mL,,2.3%,% Hemolysis 100 μg/ml (human red blood cells; red cells of human): 3.1%
CSCC[C@H](NC(=O)[C@H](CCCCN)NC(=O)[C@H](CCCCN)NC(=O)[C@H](CC(C)C)NC(=O)CNC(=O)[C@H](C)N)C(=O)N[C@@H](CCCNC(=N)N)C(=O)N[C@@H](Cc1c[nH]c2ccccc12)C(=O)N[C@@H](CCC(N)=O)C(=O)N[C@@H](Cc1c[nH]c2ccccc12)C(=O)N[C@@H](CCCNC(=N)N)C(=O)N[C@@H](CCCNC(=N)N)C(=O)N[C@@H](CSCNC(C)=O)C(=O)N[C@@H](CCCCN)C(=O)N[C@@H](Cc1ccccc1)C(=O)O [Retro LFB 17-31],,,,2.01%,"MIC E. coli ([2]; Table 3): 80 µg/mL; MIC S. aureus ([3]; Table 3, unit assumed): 200 µg/mL"
CSCC[C@@H](NC(=O)[C@@H](CCCCN)NC(=O)[C@@H](CCCCN)NC(=O)[C@@H](CC(C)C)NC(=O)CNC(=O)[C@@H](C)N)C(=O)N[C@H](CCCNC(=N)N)C(=O)N[C@H](Cc1c[nH]c2ccccc12)C(=O)N[C@H](CCC(N)=O)C(=O)N[C@H](Cc1c[nH]c2ccccc12)C(=O)N[C@H](CCCNC(=N)N)C(=O)N[C@H](CCCNC(=N)N)C(=O)N[C@H](CSCNC(C)=O)C(=O)N[C@H](CCCCN)C(=O)N[C@H](Cc1ccccc1)C(=O)O [Retro-Enantio LFB 17-31],,,,3.31%,"MIC E. coli ([2]; Table 3): 6.25 µg/mL; MIC S. aureus ([3]; Table 3, unit assumed): 80 µg/mL"
"H-FKWRRWQWRMKKLWA-OH [LFB W3, 14, H2N-Phe-Lys-Trp-Arg-Arg-Trp-Gln-Trp-Arg-Met-Lys-Lys-Leu-Trp-Ala-COOH]",,,,3.1%,"MIC E. coli ([2]; Table 6): 10 µg/mL; MIC E. coli ([2]; Table 12): 10 µg/mL; MIC S. aureus ([3]; Table 6, unit assumed): 10 µg/mL; MIC S. aureus ([3]; Table 12): 10 µg/mL; EC 50 (human red blood cells): >1000 µg/mL; EC50 (human red blood cells): > 453 µM; % Hemolysis 100 μg/ml (human red blood cells; red cells of human): 5.1%"
Linear LFB (17-41) modified with Pmc: linear LFB (17-41) modified with Pmc,,,,,cytotoxic effect on Meth A cells compared with another peptide [1]: slightly more effective than Pmc modified LFB 17-31
"YRAWRWAWRWR-NH2 [LFB 17-27 A3, 7 R2, 11 W4, 10 Y1 NH2, TYR-ARG-ALA-TRP-ARG-TRP-ALA-TRP-ARG-TRP-ARG-CONH2]",,,,,"MIC E. coli ([2]; Table 14, peptides with a proportion of D amino acids): 10 µg/mL; MIC S. aureus ([3]; Table 14): 2.5 µg/mL; EC50 (human red blood cells): 400 ± 200 µM; EC 50 (human red blood cells; Table 13, toxicity (hemolysis)): 700 ± 300 µg/mL"
